The record followed here is patent US20120064531A1, “MODIFIED NUCLEOTIDE AND REAL-TIME POLYMERASE REACTION USING THE SAME” (Korea Institute of Science and Technology, priority 2010, published 2012).

For experiment [1], the system named is Therminator γ DNA polymerase. Kind of experiment: Primer extension reaction with PAGE to search for a DNA polymerase able to use γF-dGTP as a substrate. It counts as biochemical. Conditions: γF-dGTP 25 uM instead of dGTP; 5 cycles 94/46/60° C.; 20% denaturing PAGE, FIG. 3. As to the method:
(§1) In order to search DNA polymerase, primer extension reaction was performed.
(§2) More specifically, the mixed reaction solution was heated by repeating five times a cycle consisting of 20 sec at 94° C., 40 sec at 46° C., and 90 sec at 60° C.
(§3) After each polymerase reaction, the mixed reaction solution was developed (Vertical Gel Electrophoresis Unit, Sigma-Aldrich) by using 20% denaturing polyacrylamide gel electrophoresis (PAGE). As a result, an image of DNA fluorescence band was obtained by using scanner (Typhoon9400, GE healthcare).

Experiment [2] concerns Therminator γ DNA polymerase. Kind of experiment: Quantitative real-time PCR analysis (fluorescence after each cycle, Ct standard curve). It counts as biochemical. To be noted: for Sensitivity (Required PCR cycles for 1 copy number: Y-intercept): real-time PCR standard curve, a lower value means more sensitivity; for (Efficiency, %) [100 × (10^(−1/slope) − 1)]: real-time PCR, template 10 nM to 10 fM, 40 cycles, Max = 100%. As to the method: Total of 40 cycles of PCR was performed, wherein each cycle consists of 94° C. for 10 sec, 54° C. for 15 sec, and 72° C. for 10 sec. After each cycle was completed, fluorescence intensity was measured in real time by using StepOne real-time PCR system (ABI). […] Ct (threshold cycle) value was set up by determining the point at which the threshold encounters the polymerization curve. […] Analysis was performed under the PCR conditions, the equipment and the method identical to that of <example 4>.

The target in the next experiment is Phi29 DNA polymerase (Bacillus phage phi29, UniProt P03680). To be noted: γF-dGTP 25 uM, 30° C. for 20 min, read every 20 sec; FIG. 6. The protocol:
Real-time RCA (rolling circle amplification) analysis was performed by using 20 ul of mixed reaction solution comprising the primer having SEQ ID: 6 (5′-[…], 100 nM), the template chain having SEQ ID: 7 (5′-[…] […], 100 nM), dATP (25 uM, Promega), dCTP (25 uM, Promega), dTTP (25 uM, Promega), γF-dGTP (25 uM), BSA (100 μg/mL), Phi29 DNA polymerase reaction buffer (New England Biolabs), and Phi29 DNA polymerase. (6 units) The reaction was performed at 30° C. for 20 min and fluorescence intensity at every 20 sec was measured by the equipment used in <example 4>.

The next experiment deals with T1, Taq DNA polymerase (Thermus aquaticus, UniProt P19821).
T1 construct: purchased New England Biolabs
T1 sequence (P19821 whole entry): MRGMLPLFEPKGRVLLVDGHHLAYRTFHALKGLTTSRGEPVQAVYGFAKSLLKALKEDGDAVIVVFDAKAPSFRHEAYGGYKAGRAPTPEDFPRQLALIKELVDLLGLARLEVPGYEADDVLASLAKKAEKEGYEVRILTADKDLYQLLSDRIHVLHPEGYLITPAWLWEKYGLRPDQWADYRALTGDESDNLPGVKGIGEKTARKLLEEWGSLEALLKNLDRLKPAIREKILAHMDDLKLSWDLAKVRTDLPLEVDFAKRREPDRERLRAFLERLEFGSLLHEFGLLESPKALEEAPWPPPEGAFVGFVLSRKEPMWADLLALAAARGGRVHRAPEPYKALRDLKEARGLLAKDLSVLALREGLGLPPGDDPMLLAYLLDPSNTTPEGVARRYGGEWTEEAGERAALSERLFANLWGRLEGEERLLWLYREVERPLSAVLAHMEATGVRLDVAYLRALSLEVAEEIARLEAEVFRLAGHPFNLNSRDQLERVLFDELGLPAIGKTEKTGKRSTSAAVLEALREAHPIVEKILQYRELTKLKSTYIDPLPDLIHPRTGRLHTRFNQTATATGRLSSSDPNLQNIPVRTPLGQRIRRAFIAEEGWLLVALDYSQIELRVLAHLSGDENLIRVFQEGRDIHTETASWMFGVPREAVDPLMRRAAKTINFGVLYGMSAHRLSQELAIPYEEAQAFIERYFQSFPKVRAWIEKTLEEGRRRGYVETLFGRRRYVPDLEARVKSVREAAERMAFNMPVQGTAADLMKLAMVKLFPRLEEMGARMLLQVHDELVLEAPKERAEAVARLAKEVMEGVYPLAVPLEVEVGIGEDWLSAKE
Kind of experiment: Primer extension reaction with PAGE to search for a DNA polymerase able to use γF-dGTP as a substrate. It is filed as biochemical. Conditions: γF-dGTP 25 uM instead of dGTP; 5 cycles 94/46/60° C.; 20% denaturing PAGE, FIG. 3. As to the method:
as §1, §2
For a control group experiment, Taq DNA polymerase reaction was performed by using dGTP in a natural state instead of γF-dGTP under the same conditions mentioned above.
as §3

Sequence of Phi29 DNA polymerase (P03680 whole entry): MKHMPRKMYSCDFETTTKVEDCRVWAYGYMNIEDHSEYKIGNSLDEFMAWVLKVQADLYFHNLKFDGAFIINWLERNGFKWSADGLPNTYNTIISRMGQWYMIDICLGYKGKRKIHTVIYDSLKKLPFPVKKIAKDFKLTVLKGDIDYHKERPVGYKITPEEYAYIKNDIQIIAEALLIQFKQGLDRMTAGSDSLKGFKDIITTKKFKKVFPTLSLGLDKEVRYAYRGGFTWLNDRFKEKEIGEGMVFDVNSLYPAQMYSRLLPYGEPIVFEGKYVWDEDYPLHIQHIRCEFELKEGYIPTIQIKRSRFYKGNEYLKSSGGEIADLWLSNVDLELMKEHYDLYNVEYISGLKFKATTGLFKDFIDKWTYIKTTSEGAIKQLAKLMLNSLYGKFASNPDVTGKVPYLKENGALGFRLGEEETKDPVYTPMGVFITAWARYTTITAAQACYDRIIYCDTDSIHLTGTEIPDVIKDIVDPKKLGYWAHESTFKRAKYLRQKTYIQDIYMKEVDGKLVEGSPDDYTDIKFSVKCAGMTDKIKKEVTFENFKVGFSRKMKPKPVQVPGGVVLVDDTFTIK

Turning to `CC1=CC(C)=[N+]2C1=Cc1ccc(CCC(=O)NCCNP(=O)(O)OP(=O)(O)OP(=O)(O)OC[C@H]3O[C@@H](n4cnc5c(=O)[nH]c(N)nc54)C[C@@H]3O)n1[B-]2(F)F` [γF-dGTP], the “Use as a substrate by the polymerase (fully extended polymerization product on PAGE)” value in experiment [1] was “can use the modified nucleotide as a substrate”. Moreover, in experiment [2], the “Sensitivity (Required PCR cycles for 1 copy number: Y-intercept)” value turned out to be 41.5 and the “(Efficiency, %) [100 × (10^(−1/slope) − 1)]” value was 93.4%. Also, on Phi29 DNA polymerase, the “Fluorescence intensity during real-time RCA” value is given as “fluorescence intensity increases”. Also, the “Use as a substrate by the polymerase (fully extended polymerization product on PAGE)” value on Taq DNA polymerase is given as “can use the modified nucleotide as a substrate”.

`CCCN(CCCN(C)C)c1cc(/C=C2/Sc3ccccc3N2C)c2ccccc2[n+]1-c1ccccc1` [SYBR green I, reference compound]: in experiment [2], the “Sensitivity (Required PCR cycles for 1 copy number: Y-intercept)” value is on record as 47.2 and the “(Efficiency, %) [100 × (10^(−1/slope) − 1)]” value was determined as 80.5%.
